{"source": "patent US7888389B2", "about": "(The Regents of the University of Michigan, priority 2002, dated 2011)", "key": {"[1]": {"conditions": "cited from earlier work"}, "[2]": {"conditions": "cited from earlier work", "remark": "listed apart in the source"}, "mammary tumors": {"tested_on": "mammary tumors", "assay": "Mammary tumor development in HER2-neu transgenic mice"}, "[3]": {"conditions": "IV 99Mo labeled TM, sheep; cited from earlier work"}, "[4]": {"conditions": "late stages of liver disease; cited from earlier work"}}, "note": "“And” between values parts separate entries of the source, which are not always exact repeats. Equal entries are not always repeated."}
{"substance": "tetrathiomolybdate [TM]", "values": [{"measurement": "potency retained in gelatin capsules", "setting": "[1]; eight weeks", "result": "at least 90%"}, {"measurement": "stability of bulk drug", "setting": "[1]; under argon", "result": "stable for several years under argon"}, {"measurement": "tolerance of TM injections", "setting": "[2]; IV 50 or 100 mg 2x weekly, copper loaded sheep", "result": "tolerated up to 22 injections of TM without clinical problems"}, {"measurement": "adverse side effects in commercial sheep flocks", "setting": "[2]; over 400 animals treated", "result": "no adverse side effects"}, {"measurement": "speed of reducing Cp level to <20%", "setting": "metastatic solid tumors; 20 mg tid with meals plus single 60 mg between meals vs 20 mg tid with and 20 mg tid between meals", "result": "more rapidly"}, {"measurement": "mean time to 50% reduction of Cp", "setting": "metastatic solid tumors; 90, 105, 120 mg/day", "result": 30, "unit": "days"}, {"measurement": "median time to Cp 50% of baseline", "setting": "metastatic solid tumors; 90, 105, 120 mg/day", "result": 28, "unit": "days"}, {"measurement": "level III dose outcome", "setting": "metastatic solid tumors; TM 120 mg/day", "result": "effective in reaching the target Cp, without added toxicity"}, {"measurement": "time for further reduction to Cp levels of 5-10 mg/dl", "setting": "metastatic solid tumors; after reaching 50% of baseline", "result": "20 to 30", "unit": "days"}, {"measurement": "lung lesions in two patients with stable disease", "setting": "metastatic solid tumors; at target Cp for 120 and 49 days", "result": "complete disappearance of some lung lesions and decrease in size of other lung lesions"}, {"measurement": "additional toxicities with long-term maintenance", "setting": "metastatic solid tumors; human, in vivo", "result": "No additional toxicities of any type were observed"}, {"measurement": "burping", "setting": "metastatic solid tumors; human, in vivo", "result": "Several patients experienced transient, occasional sulphur-smelling burping"}, {"measurement": "mild (greater than 80% of baseline Hct) reversible anemia", "setting": "metastatic solid tumors; human, in vivo", "result": 4, "unit": "patients"}, {"measurement": "only drug-related toxicity observed", "setting": "metastatic solid tumors; human, in vivo", "result": "mild anemia in one patient"}, {"measurement": "time for hematocrit to recover after stopping the drug", "setting": "metastatic solid tumors; human, in vivo", "result": "5 to 7", "unit": "days"}, {"measurement": "time to rapid rise in Cp after TM discontinued", "setting": "metastatic solid tumors; human, in vivo", "result": "≤ 48", "unit": "h"}, {"measurement": "toxicities at Cp levels at or above 20% of baseline", "setting": "metastatic solid tumors; human, in vivo", "result": "no cardiac, pulmonary, GI, renal, hepatic, hematologic, infectious, skin, mucosal, or neurologic toxicities observed"}, {"measurement": "treated patients maintained at target Cp for more than 90 days", "setting": "metastatic solid tumors; human, in vivo", "result": 39, "unit": "%"}, {"measurement": "patients with serum Cp lowered to 50% of baseline", "setting": "metastatic solid tumors; initial TM 90 to 120 mg per day", "result": "17 out of 18 patients"}, {"measurement": "duration of stable disease on TM treatment", "setting": "metastatic solid tumors; one patient, previously untreated metastatic breast cancer", "result": "over 6 months"}, {"measurement": "decrease in blood flow to tumor mass (3D-ultrasound)", "setting": "metastatic solid tumors; rib metastasis of renal cell carcinoma, approximately 8 weeks after target copper deficiency", "result": 4.4, "unit": "fold"}, {"measurement": "TM-treated mice developing clinically overt tumors", "setting": "mammary tumors; 0.5-1.0 mg TM by gavage daily from 100 days of age, median follow-up 260 days", "result": "none"}, {"measurement": "ceruloplasmin (Cp) in treatment group", "setting": "mammary tumors; 0.5-1.0 mg TM daily", "result": "below 40 % of baseline"}, {"measurement": "outcome at higher doses", "setting": "mammary tumors; 1.25-1.5 mg TM", "result": "died after 1-3 weeks of therapy"}, {"measurement": "shrinkage of well established tumors (>1.5 cm)", "setting": "mammary tumors; 3 control animals treated, 2/3 cases", "result": "25% and 50%"}, {"measurement": "vascularization of micro-tumors in mammary glands", "setting": "mammary tumors; TM-treated mice, microscopic analyses", "result": "none of the micro-tumors of the treated mice were vascularized"}, {"measurement": "maximum tolerated dose (MTD), prolonged treatment", "setting": "mammary tumors; adult mice, average weight 32 grams", "result": 1.0, "unit": "mg/day"}, {"measurement": "anemia", "setting": "mammary tumors; copper (Cp) decreased to below 40% of baseline", "result": "no anemia observed"}, {"measurement": "clinically overt toxicity", "setting": "mammary tumors; copper levels decreased to 10% of baseline", "result": "no clinically overt toxicity"}, {"measurement": "time to clinically overt mammary tumors after release from treatment", "setting": "mammary tumors; cross-over group previously disease-free", "result": "≤ 18", "unit": "days"}, {"measurement": "excreted in feces", "setting": "[3]", "result": 5, "unit": "%"}, {"measurement": "excreted in urine", "setting": "[3]", "result": "over 90%"}, {"measurement": "t1/2 of slow plasma disappearance", "setting": "[3]", "result": "about 40 h"}, {"measurement": "efficacy in LEC rats", "setting": "[4]", "result": "very effective"}]}
